“Also recorded” adds a separate entry of the source. Like-named read-outs stand apart in the source and are kept apart here.
Experiments:
[1] = RAD001 PK analysis in NSG mice with NALM6-luc tumors; assay type: in vivo; conditions: for concentration at 24 h: NSG, mouse
Experimental: (§1) A concentrated micro-emulsion of 50 mg equal to 1 mg RAD001 was formulated and then resuspended in D5W (dextrose 5% in water) at the time of dosing. Mice were orally dosed daily (via oral gavage) with 200 μl of the desired doses of RAD001.
Mice were dosed daily with RAD001 starting 7 days post tumor implantation. Dosing groups were as follows: 0.3 mg/kg, 1 mg/kg, 3 mg/kg, and 10 mg/kg. Mice were bled on days 0 and 14 following the first and last dose of RAD001, at the following time points for PK analysis: 15 minutes, 30 minutes, 1 hour, 2 hours, 4 hours, 8 hours, 12 hours, and 24 hours.

[2] = tested on: NALM6-luc tumors; assay: NALM6-luc tumor growth under daily oral RAD001; assay type: in vivo, NSG mice; conditions: daily oral dosing of RAD001 alone
Experimental: NALM6-luc cells were grown and expanded in vitro in RPMI supplemented with 10% heat inactivated fetal bovine serum. The cells were then transferred to a 15 ml conical tube and washed twice with cold sterile PBS. NALM6-luc cells were then counted and resuspended at a concentration of 10×10^6 cells per milliliter of PBS. The cells were placed on ice and immediately (within one hour) implanted in the mice. NALM6-luc cells were injected intravenously via the tail vein in a 100 μl volume, for a total of 1×10^6 cells per mouse.
as §1

[3] = tested on: huCART19 cells; assay: CART proliferation in 4 day co-culture with Nalm-6 in presence of RAD001; assay type: cell-based, human
Experimental: To evaluate the functionality of CARTs, the T cells are thawed and counted, and viability is assessed by Cellometer. The number of CAR-positive cells in each culture is normalized using non-transduced T cells (UTD). The impact of RAD001 on CARTs was tested in titrations with RAD001, starting at 50 nM. The target cell line used in all co-culture experiments is Nalm-6, a human pre-B cell acute lymphoblastic leukemia (ALL) cell line expressing CD19 and transduced to express luciferase.
For measuring the proliferation of CARTs, T cells are cultured with target cells at a ratio of 1:1. The assay is run for 4 days, when cells are stained for CD3, CD4, CD8 and CAR expression. The number of T cells is assessed by flow cytometry using counting beads as reference.

[4] = tested on: CAR-positive CD3-positive T cells co-cultured with Nalm-6 cells; assay: CART proliferation in co-culture with Nalm-6 cells with RAD001; assay type: cell-based; conditions: low doses of RAD001, 4 days of co-culture with Nalm-6
Experimental: CARTs were co-cultured with Nalm-6 cells in the presence of different concentrations of RAD001. The number of CAR-positive CD3-positive T cells (black) and total T cells (gray) was assessed after 4 days of co-culture.

[5] = tested on: CD4+ and CD8+ CAR T cells; assay: In vivo proliferation of humanized CD19 CART cells with and without RAD001; conditions: 0.003 mg/kg daily with huCTL019
Experimental: FIG. 49A and FIG. 49B show in vivo proliferation of humanized CD19 CART cells with and without RAD001 dosing. […] Circles denote PBS; squares denote huCTL019; triangles denote huCTL019 with 3 mg/kg RAD001; inverted triangles denote huCTL019 with 0.3 mg/kg RAD001; diamonds denote huCTL019 with 0.03 mg/kg RAD001; and circles denote huCTL019 with 0.003 mg/kg RAD001.

[6] = tested on: huCAR19 CAR T cells; assay: CAR T cell expansion in vivo with RAD001 (FACS); set-up: species or system NSG mice; conditions: lowest doses of RAD001, daily oral
Experimental: Mice were administered 5×10^6 CAR T cells 7 days after tumor implantation. Cells were partially thawed in a 37 degree Celsius water bath and then completely thawed by the addition of 1 ml of cold sterile PBS to the tube containing the cells. The thawed cells were transferred to a 15 ml falcon tube and adjusted to a final volume of 10 mls with PBS. The cells were washed twice at 1000 rpm for 10 minutes each time and then counted on a hemocytometer. T cells were then resuspended at a concentration of 50×10^6 CAR T cells per ml of cold PBS and kept on ice until the mice were dosed. The mice were injected intravenously via the tail vein with 100 μl of the CAR T cells for a dose of 5×10^6 CAR T cells per mouse. Eight mice per group were treated either with 100 μl of PBS alone (PBS), or humanized CD19 CAR T cells.
as §1
Based on these doses, huCAR19 CAR T cells were dosed with and without RAD001 to determine the proliferative ability of these cells. The highest dose used was 3 mg/kg based on the levels of RAD001 in the blood 24 hours after dosing. […] Mice were monitored via FACS for T cell expansion.

CO[C@H]1C[C@@H]2CC[C@@H](C)[C@@](O)(O2)C(=O)C(=O)N2CCCC[C@H]2C(=O)O[C@H]([C@H](C)C[C@@H]2CC[C@@H](OCCO)[C@H](OC)C2)CC(=O)[C@H](C)/C=C(\C)[C@@H](O)[C@@H](OC)C(=O)[C@H](C)C[C@H](C)/C=C/C=C/C=C/1C [RAD001, everolimus]
concentration at 24 h ([1]; blood, oral, 0.3 mg/kg, 24 hours after the final dose, read-out: concentration of RAD001): > 10 nM
concentration at 24 h ([1]; whole blood, 24 hours after dosing, 0.3 mg/kg oral, day 0 and day 14, read-out: RAD001 concentrations in the blood): > 10 nM
stability in the blood of tumor bearing mice ([1]; daily oral dosing): fairly stable
impact on the growth of NALM6-luc tumors [2]: did not have an impact
proliferation of huCART19 cells ([3]; 0.0032 and 0.016 nM RAD001): higher than observed without the addition of RAD001
expansion of huCART19 cells ([3]; less than 0.016 nM of RAD001): expanded
proliferation of CAR-expressing, transduced T cells [4]: enhanced
in vivo CAR T cell proliferation [5]: enhancement in CAR T cell proliferation
proliferation of the CAR T cells in vivo [6]: enhanced proliferation; also recorded: more evident and prolonged with the CD4^+ CAR T cells

From US11981731B2, “Targeting cytotoxic cells with chimeric receptors for adoptive immunotherapy” (Novartis AG, priority 2014, dated 2024)
